Measurements taken from ChEMBL document CHEMBL1141430, “Alkaloids with human delta-opioid receptor binding affinity from the Australian rainforest tree Peripentadenia mearsii” (J Nat Prod, 2007).
Calls of active or inactive are those of the source. The rule behind the calls is not given here.

How the values were obtained:
[1] = molecular target: T1, Delta-type opioid receptor (Homo sapiens, UniProt P41143); assay: biochemical
[2] = molecular target: T1, Delta-type opioid receptor; assay: Displacement of [125I]deltorphin 2 from human recombinant delta opioid receptor expressed in HEK cells at 100 uM; format: cell-based; settings: HEK293

T1 sequence (P41143 whole entry): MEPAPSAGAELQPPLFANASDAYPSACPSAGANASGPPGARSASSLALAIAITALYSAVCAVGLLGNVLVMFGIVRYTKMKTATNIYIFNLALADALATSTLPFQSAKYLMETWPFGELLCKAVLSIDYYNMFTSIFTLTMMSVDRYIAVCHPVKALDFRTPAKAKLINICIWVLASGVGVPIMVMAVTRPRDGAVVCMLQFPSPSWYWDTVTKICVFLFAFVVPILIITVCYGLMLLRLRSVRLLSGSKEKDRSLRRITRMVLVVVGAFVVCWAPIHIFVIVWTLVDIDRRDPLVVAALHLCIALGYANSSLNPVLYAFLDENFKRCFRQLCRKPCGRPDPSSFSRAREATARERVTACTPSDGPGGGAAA

| Structure (SMILES) | IC50 [1] | Activity [2] |
| --- | --- | --- |
| CCCCCC(=O)NCCCN1CCC[C@H]1CC(=O)O [PERIPENTONINE C] | 30.9 µM |  |
| CCCCCC(=O)NCCC[N+]12CCC[C@@H]1CC1=C(C(=O)CC(C)O1)[C@H]2C (stereo partly drawn) |  | inactive |
| CCCCCC(=O)NCCCN1CCCC1CC(=O)c1c(C)cccc1O (stereo not drawn) [PERIPENTADENINE] | 11.4 µM |  |
